Data published in PubChem BioAssay AID2060885 (Molecular Pharmacology Branch, DTP, NCI, 2025).

Test system: NCI-H23 complex spheroids with HUVEC/MSC, viability
Assay: Anticancer human tumor NCI-H23 cell line growth inhibition [RAS];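 also: spheroids exposed to compound for 7 days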;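 as to viability, T/C: 100% = DMSO vehicle control viability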
Settings: for IC50: curve of first compound; for viability, T/C: stronger effect = lower value
In short: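 Tumour cells grown as complex spheroids with HUVEC endothelial cells and mesenchymal stem cells, treated with RAS pathway inhibitor combinations. Each agent spans half-log steps from near clinical Cmax, or 10 microM where Cmax is unknown.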

For `CC1(C)CCC(Nc2ncc(C(F)(F)F)c(-c3c[nH]c4c(P(C)(C)=O)c(C#N)ccc34)n2)CN1` (configuration not stated) + C#Cc1c(F)ccc2cc(O)cc(-c3ncc4c(N5CC6CCC(C5)N6)nc(OCC56CCCN5CC(F)C6)nc4c3F)c12, the IC50 (second compound 0.0316 µM) was 25.3 nM, the IC50 (second compound 0.1 µM) was greater than 300 nM and the IC50 (second compound 0.316 µM) was 13.3 nM. For the same compound, the IC50 (second compound 1 µM) was 5.95 nM, the IC50 (second compound 3.16 µM) was less than 0.949 nM and the IC50 (second compound 10 µM) was less than 0.949 nM. For the same compound, the viability, T/C (second compound 0.0316 µM, first compound 0.000949 µM) was 77.4%, the viability, T/C (second compound 0.0316 µM, first compound 0.003 µM) was 95.5% and the viability, T/C (second compound 0.0316 µM, first compound 0.00949 µM) was 64.1%. It also gave a viability, T/C (second compound 0.0316 µM, first compound 0.03 µM) of 46.9%, a viability, T/C (second compound 0.0316 µM, first compound 0.0949 µM) of 42.9% and a viability, T/C (second compound 0.0316 µM, first compound 0.3 µM) of 53%. For the same compound, the viability, T/C (second compound 0.1 µM, first compound 0.000949 µM) was 105%, the viability, T/C (second compound 0.1 µM, first compound 0.003 µM) was 87.7% and the viability, T/C (second compound 0.1 µM, first compound 0.00949 µM) was 60.6%. The viability, T/C (second compound 0.1 µM, first compound 0.03 µM) was 46.7%, the viability, T/C (second compound 0.1 µM, first compound 0.0949 µM) was 44.5% and the viability, T/C (second compound 0.1 µM, first compound 0.3 µM) was 59.2%. It also gave a viability, T/C (second compound 0.316 µM, first compound 0.000949 µM) of 82.9%, a viability, T/C (second compound 0.316 µM, first compound 0.003 µM) of 75.6% and a viability, T/C (second compound 0.316 µM, first compound 0.00949 µM) of 52.2%. For the same compound, the viability, T/C (second compound 0.316 µM, first compound 0.03 µM) was 44.8%, the viability, T/C (second compound 0.316 µM, first compound 0.0949 µM) was 35.6% and the viability, T/C (second compound 0.316 µM, first compound 0.3 µM) was 40.8%. It also gave a viability, T/C (second compound 1 µM, first compound 0.000949 µM) of 83.2%, a viability, T/C (second compound 1 µM, first compound 0.003 µM) of 60.8% and a viability, T/C (second compound 1 µM, first compound 0.00949 µM) of 42.7%. It also gave a viability, T/C (second compound 1 µM, first compound 0.03 µM) of 38.2%, a viability, T/C (second compound 1 µM, first compound 0.0949 µM) of 39% and a viability, T/C (second compound 1 µM, first compound 0.3 µM) of 36.8%. For the same compound, the viability, T/C (second compound 3.16 µM, first compound 0.000949 µM) was 45%, the viability, T/C (second compound 3.16 µM, first compound 0.003 µM) was 37.9% and the viability, T/C (second compound 3.16 µM, first compound 0.00949 µM) was 33%. It also gave a viability, T/C (second compound 3.16 µM, first compound 0.03 µM) of 28.4%, a viability, T/C (second compound 3.16 µM, first compound 0.0949 µM) of 33% and a viability, T/C (second compound 3.16 µM, first compound 0.3 µM) of 31.4%. It also gave a viability, T/C (second compound 10 µM, first compound 0.000949 µM) of 29.7%, a viability, T/C (second compound 10 µM, first compound 0.003 µM) of 29.1% and a viability, T/C (second compound 10 µM, first compound 0.00949 µM) of 25.1%. It also gave a viability, T/C (second compound 10 µM, first compound 0.03 µM) of 21.7%, a viability, T/C (second compound 10 µM, first compound 0.0949 µM) of 19.3% and a viability, T/C (second compound 10 µM, first compound 0.3 µM) of 18.4%.
